Measured values taken from ChEMBL document CHEMBL1201862, “PubChem BioAssay data set” (2004).
Each block holds one compound with its values, some of them ahead of it. The source made the active and inactive calls.

What was measured:
[1] = Luminescence Cell-Based Dose Confirmation HTS to Identify Inhibitors of Platelet Dense Granule Release. [Related pubchem assays: 1663 (Primary HTS), 1678 (Summary of Project)]; type: functional
[2] = target: Eukaryotic translation initiation factor 4H (Homo sapiens, UniProt Q15056); experiment: human eIF4H binding inhibitors, primary screen, translation initiation inhibitor project, biochemical, uHTS, fluorescence polarization (AID 2012)
[3] = target: T1, Luciferin 4-monooxygenase (Photinus pyralis, UniProt P08659); experiment: firefly luciferase enzyme inhibitors, dose response, biochemical, luminescence (AID 1891)
T1 sequence (P08659 whole entry): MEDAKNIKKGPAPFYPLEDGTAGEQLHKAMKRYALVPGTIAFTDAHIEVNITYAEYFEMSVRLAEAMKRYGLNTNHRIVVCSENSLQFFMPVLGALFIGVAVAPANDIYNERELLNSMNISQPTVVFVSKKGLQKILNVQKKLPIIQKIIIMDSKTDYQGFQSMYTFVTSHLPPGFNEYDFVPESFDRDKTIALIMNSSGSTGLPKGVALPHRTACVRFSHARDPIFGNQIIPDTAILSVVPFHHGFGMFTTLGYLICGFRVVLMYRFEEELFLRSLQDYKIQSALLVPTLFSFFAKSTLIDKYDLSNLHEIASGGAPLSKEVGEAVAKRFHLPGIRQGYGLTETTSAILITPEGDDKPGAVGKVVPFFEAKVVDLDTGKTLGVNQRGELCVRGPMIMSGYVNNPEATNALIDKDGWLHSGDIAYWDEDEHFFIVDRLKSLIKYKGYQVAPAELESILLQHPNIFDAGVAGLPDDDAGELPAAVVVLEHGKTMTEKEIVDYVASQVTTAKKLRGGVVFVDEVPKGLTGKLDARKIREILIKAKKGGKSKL

[4] = target: Polyadenylate-binding protein 1 (Homo sapiens, UniProt P11940); experiment: PABP poly(A) RNA binding inhibitors, primary screen, biochemical, fluorescence polarization, uHTS (AID 2014)
Chain of Polyadenylate-binding protein 1 (P11940 whole entry): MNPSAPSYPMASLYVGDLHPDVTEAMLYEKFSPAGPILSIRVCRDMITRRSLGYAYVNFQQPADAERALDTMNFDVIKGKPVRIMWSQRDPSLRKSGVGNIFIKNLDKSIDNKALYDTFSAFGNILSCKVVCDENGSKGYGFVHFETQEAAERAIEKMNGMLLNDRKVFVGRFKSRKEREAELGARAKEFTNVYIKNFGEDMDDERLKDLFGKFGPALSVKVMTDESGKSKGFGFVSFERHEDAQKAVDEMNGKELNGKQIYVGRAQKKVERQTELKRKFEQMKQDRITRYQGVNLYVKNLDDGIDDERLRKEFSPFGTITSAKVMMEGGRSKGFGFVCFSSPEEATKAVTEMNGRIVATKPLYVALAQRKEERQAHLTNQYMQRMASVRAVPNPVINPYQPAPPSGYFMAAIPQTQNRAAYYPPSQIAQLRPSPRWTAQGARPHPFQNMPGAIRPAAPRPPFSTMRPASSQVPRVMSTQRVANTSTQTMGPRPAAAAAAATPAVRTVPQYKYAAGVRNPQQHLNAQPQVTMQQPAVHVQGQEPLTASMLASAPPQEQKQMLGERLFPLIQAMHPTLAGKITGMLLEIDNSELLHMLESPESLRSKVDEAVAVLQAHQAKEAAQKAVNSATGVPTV

HEK293 [5] = experiment: PMA/Ionomycin-induced IL-8 production in HEK293- NF-kB-Luc stable cells. [Related pubchem assays: 1299, 1295, 1375, 1287, 1281, 1293, 1291, 1289, 1280, 465, 1364, 1282, 1372, 1365, 1367, 1366, 1266, 1269, 1373, 1292, 1290, 1302, 1371, 1283, 1271, 1294, 1374, 1368, 1369 ]; type: functional, cell-based; details: Homo sapiens
HEK293 [6] = experiment: TNF Induced NF-kB Luciferase in 293-NF-kB-Luc Stable Cells. [Related pubchem assays: 1266, 1299, 1269, 1373, 1292, 1290, 1302, 1371, 1283, 1270, 1295, 1271, 1375, 1294, 1374, 1281, 1293, 1291, 1289, 1280, 465, 1368, 1364, 1282, 1372, 1365, 1369, 1370, 1367, 1366 ]; type: functional, cell-based; details: Homo sapiens
HEK293 [7] = experiment: Cytotoxicity assay in HEK293 cells. [Related pubchem assays (depositor defined):AID1266, AID1269, AID1270, AID1271, AID1280, AID1281, AID1282, AID1283, AID1287, AID1289, AID1290, AID1291, AID1292, AID1293, AID1294, AID1295, AID1299, AID1302, AID1364, AID1365, AID1366, AID1367, AID1369, AID1370, AID1371, AID1372, AID1373, AID1374, AID1375, AID1384 …; type: functional, cell-based; details: Homo sapiens
HEK293 [8] = experiment: PMA/Ionomycin induced NF-kB luciferase assay in 293- NF-kB-Luc stable cells. [Related pubchem assays: 1299, 1270, 1295, 1375, 1287, 1281, 1293, 1291, 1289, 1280, 465, 1364, 1282, 1372, 1365, 1370, 1367, 1366, 1269, 1373, 1292, 1290, 1302, 1371, 1283, 1271, 1294, 1374, 1368, 1369 ]; type: functional, cell-based; details: Homo sapiens
[9] = target: T1, Luciferin 4-monooxygenase; experiment: In vitro luciferase assay using purified luciferase. [Related pubchem assays: 1299, 1270, 1295, 1375, 1287, 1281, 1293, 1291, 1289, 1280, 465, 1364, 1282, 1372, 1365, 1370, 1367, 1366, 1266, 1373, 1292, 1290, 1302, 1371, 1283, 1271, 1294, 1374, 1368, 1369 ]
[10] = target: G-protein coupled receptor 55 (Homo sapiens, UniProt Q9Y2T6); experiment: GPR55 agonists via beta-arrestin recruitment, primary screen, imaging, U2OS cells, beta-arrestin-GFP redistribution (AID 1961); type: functional
Chain of G-protein coupled receptor 55 (Q9Y2T6 whole entry): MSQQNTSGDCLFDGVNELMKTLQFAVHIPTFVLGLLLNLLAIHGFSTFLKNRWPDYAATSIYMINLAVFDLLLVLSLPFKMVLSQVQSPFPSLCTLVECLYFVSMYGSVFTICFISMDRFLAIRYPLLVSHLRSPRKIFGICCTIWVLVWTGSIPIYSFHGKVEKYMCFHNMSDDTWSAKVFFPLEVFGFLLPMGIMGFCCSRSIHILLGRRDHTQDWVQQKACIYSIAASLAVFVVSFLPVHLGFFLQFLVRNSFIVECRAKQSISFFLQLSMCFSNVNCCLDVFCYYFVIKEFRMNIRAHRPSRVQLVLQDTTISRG

[11] = target: Metabotropic glutamate receptor 4 (Rattus norvegicus, UniProt P31423); experiment: Modulation of the Metabotropic Glutamate Receptor mGluR4: Rat PAM Potency. [Related pubchem assays (depositor defined):AID2437, AID2807]; type: functional
Chain of Metabotropic glutamate receptor 4 (P31423 whole entry): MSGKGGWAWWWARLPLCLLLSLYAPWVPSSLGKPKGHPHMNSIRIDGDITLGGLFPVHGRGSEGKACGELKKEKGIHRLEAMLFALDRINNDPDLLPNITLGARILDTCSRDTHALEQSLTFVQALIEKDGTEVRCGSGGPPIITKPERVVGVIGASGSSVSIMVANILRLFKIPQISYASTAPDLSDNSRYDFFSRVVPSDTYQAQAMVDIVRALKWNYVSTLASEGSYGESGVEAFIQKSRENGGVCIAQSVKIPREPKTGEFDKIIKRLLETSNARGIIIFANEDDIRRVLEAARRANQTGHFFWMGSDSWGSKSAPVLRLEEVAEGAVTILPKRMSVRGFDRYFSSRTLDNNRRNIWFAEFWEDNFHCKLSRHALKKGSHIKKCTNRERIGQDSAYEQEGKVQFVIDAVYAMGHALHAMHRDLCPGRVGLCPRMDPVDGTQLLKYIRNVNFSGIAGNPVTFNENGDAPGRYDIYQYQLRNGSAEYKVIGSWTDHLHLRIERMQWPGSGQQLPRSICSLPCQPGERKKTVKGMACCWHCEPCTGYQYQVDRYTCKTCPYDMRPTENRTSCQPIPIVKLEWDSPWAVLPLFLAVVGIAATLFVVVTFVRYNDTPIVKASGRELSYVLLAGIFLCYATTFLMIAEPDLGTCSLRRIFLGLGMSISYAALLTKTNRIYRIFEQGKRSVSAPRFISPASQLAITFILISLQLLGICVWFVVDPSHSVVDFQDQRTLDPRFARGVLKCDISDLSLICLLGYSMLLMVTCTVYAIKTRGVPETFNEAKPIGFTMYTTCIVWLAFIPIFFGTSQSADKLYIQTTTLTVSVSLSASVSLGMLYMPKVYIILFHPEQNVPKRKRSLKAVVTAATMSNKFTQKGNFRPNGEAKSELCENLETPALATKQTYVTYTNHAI

SMILES: CC(=O)c1cccc(NC(=O)CCc2nnc3ccc(NCc4ccco4)nn23)c1
EC50 [1]: > 112 µM (not active)
IC50 [2]: 12 µM (active)
EC50 [3]: > 112 µM (not active)
IC50 [4]: 77 µM (active)

SMILES: CCOc1ccc(N(CC(=O)Nc2ccccc2Br)S(C)(=O)=O)cc1
EC50 (HEK293 [5]): 8.11 µM (not active)
EC50 (HEK293 [6]): > 8 µM (not active)
EC50 (HEK293 [7]): 15.5 µM (inactive)
EC50 (HEK293 [8]): 2.78 µM (active)
EC50 [9]: > 8 µM (not active)

EC50 [10]: 10.7 µM (inactive)
SMILES: CN1CCN(c2nc(Nc3ccccc3)nc(N)c2[N+](=O)[O-])CC1

SMILES: COc1cc(NC(=O)c2ccccn2)ccc1NC(=O)c1ccccc1Cl
EC50 [11]: 0.11 µM (active)
